Test results from patent publication EP4782453A1 (Beyang Therapeutics Co., Ltd., priority 2023, dated 2025).

target: T1, Menin-MLL (Homo sapiens, UniProt O00255); test: Inhibitory activity against Menin-MLL binding (fluorescence polarization); conditions: Menin-MLL IC50, fluorescence polarization; 150 nM His-Menin, 15 nM FITC-MLL; 25°C for 60 min
T1 construct: His-Menin (M1-L615 end); purchased BIORTUS BP9210
T1 sequence (O00255 1-615 isoform O00255-1): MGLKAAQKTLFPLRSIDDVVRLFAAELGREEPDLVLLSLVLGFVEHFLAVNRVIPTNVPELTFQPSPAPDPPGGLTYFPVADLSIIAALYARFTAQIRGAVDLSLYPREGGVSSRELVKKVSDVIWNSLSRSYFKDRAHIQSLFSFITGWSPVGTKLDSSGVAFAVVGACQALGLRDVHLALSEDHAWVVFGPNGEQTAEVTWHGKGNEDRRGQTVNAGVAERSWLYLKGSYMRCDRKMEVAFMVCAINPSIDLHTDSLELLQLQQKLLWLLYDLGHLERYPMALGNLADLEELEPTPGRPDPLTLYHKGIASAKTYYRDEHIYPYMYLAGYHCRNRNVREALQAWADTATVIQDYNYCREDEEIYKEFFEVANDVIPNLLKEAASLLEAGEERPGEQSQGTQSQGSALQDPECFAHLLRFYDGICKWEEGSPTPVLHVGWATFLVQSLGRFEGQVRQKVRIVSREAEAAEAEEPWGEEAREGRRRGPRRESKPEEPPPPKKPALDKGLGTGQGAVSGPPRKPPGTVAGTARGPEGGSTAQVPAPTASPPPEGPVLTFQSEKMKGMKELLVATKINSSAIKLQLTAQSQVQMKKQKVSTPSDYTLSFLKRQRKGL
Outline: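 Fluorescence polarization competition: compound and 150 nM His-tagged menin (residues M1-L615) sit 15 min at 25 °C in pH 7.5 HEPES buffer with NaCl, DTT and BSA; 15 nM FITC-labelled MLL peptide then binds for 60 min. IC50 fitted sigmoidally from mP values, duplicate wells.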

SMILES	IC50
CCOC(=O)N1CCN(CCC[C@H](C(C)C)N2CC(c3cc(-c4ccc(F)cc4C(=O)N(CC)C(C)C)c4cnc(C)n4c3)C2)CC1 [Example 471]	4.8 nM
CCN(C(=O)c1cc(F)ccc1-n1c(=O)n(CC2CN(C(CCCN3CCN(CCO)CC3)C(C)C)C2)c2c(C)cncc21)C(C)C (stereo not drawn) [Example 415, N-ethyl-5-fluoro-2-{1-[(1-{6-[4-(2-hydroxyethyl)piperazin-1-yl]-2-methylhexan-3-yl}azacyclobutan-3-yl)methyl]-7-methyl-2-oxo-1H,2H,3H-imidazo[4,5-c]pyridin-3-yl} N-(isopropyl)benzamide]	160 nM
CCN(C(=O)c1cc(F)ccc1-c1cc(C2CCN(C[C@H]3CC[C@H](NS(=O)(=O)CC)CC3)C2)cc2cncn12)C(C)C (mixture of isomers) [Example 25, N-ethyl-5-fluoro-N-isopropyl-2-[7-(1-{[(1r,4r)-4-ethanesulfonamidocyclohexyl]methyl}pyrrolidin-3-yl)imidazo[1,5-a]pyridin-5-yl]benzamide]	19 nM
CCN(C(=O)c1cc(F)ccc1-c1cc(C2CCN(C[C@]3(F)CC[C@H](NS(=O)(=O)CC)CC3)C2)cn2c(C)ncc12)C(C)C (stereo partly drawn) [Compound 51, N-ethyl-5-fluoro-2-[3-methyl-6-(1-{[(1r,4r)-4-ethanesulfonamido-1-fluorocyclohexyl]methyl}pyrrolidin-3-yl)imidazo[1,5-a]pyridin-8-yl]-N-(isopropyl)benzamide]	64 nM

same assay, conditions: fluorescence polarization; 150 nM His-Menin, 15 nM FITC-MLL; 25°C for 60 min; read-out: Menin-MLL IC50

IC50	SMILES
31 nM	CCN(C(=O)c1cc(F)ccc1-c1cc(C2CN([C@@H](CCCN3CCN(C)CC3)C(C)C)C2)cn2c(C)ncc12)C(C)C [Example 310-1, N-ethyl-5-fluoro-2-(3-methyl-6-{1-[(3S)-2-methyl-6-(4-methylpiperazin-1-yl)hexan-3-yl]azacyclobutan-3-yl}imidazo[1,5-a]pyridin-8-yl)-N-(isopropyl)benzamide]
39 nM	CCC(=O)N1CCC([C@H](C)N2CC(c3cc(-c4ccc(F)cc4C(=O)N4CCOC[C@H]4C)c4cnc(C)n4c3)C2)CC1 [Example 319-1, 1-{4-[(1S)-1-[3-(8-{4-fluoro-2-[(3R)-3-methylmorpholin-4-carbonyl]phenyl}-3-methylimidazo[1,5-a]pyridin-6-yl)azacyclobutan-1-yl]ethyl]piperidin-1-yl}propan-1-one]
231 nM	CC(C)N(CC(F)F)C(=O)c1cc(F)ccc1-c1cc([C@@H]2CCN(CCN3CCC(NC(=O)OC(C)(C)C)CC3)C2)cc2c1cnn2C [Example 166-1, N-(1-{2-[(3S)-3-(4-{2-[(2,2-difluoroethyl)(isopropyl)aminoformyl]-4-fluorophenyl}-1-methyl-1H-indazol-6-yl)pyrrolidin-1-yl]ethyl}piperidin-4-yl)tert-butyl carbamate]
110 nM	CCN(C(=O)c1cc(F)ccc1-c1cc(C2CN([C@@H](CN3CCS(=O)(=O)CC3)C(C)C)C2)cn2c(C)ncc12)C(C)C [Example 441-2, 2-(6-{1-[(2R)-1-(1,1-dioxo-thiomorpholin-4-yl)-3-methylbutan-2-yl]azacyclobutan-3-yl}-3-methylimidazo[1,5-a]pyridin-8-yl)-N-ethyl-5-fluoro-N-(isopropyl)benzamide]
328 nM	CCC(=O)N1CCC([C@@H](C)N2CC(c3cc(-c4ccc(F)cc4C(=O)N4CCOC[C@H]4C)c4cnc(C)n4c3)C2)CC1 [Example 319-2, 1-{4-[(1R)-1-[3-(8-{4-fluoro-2-[(3R)-3-methylmorpholin-4-carbonyl]phenyl}-3-methylimidazo[1,5-a]pyridin-6-yl)azacyclobutan-1-yl]ethyl]piperidin-1-yl}propan-1-one]
39 nM	CCN(C(=O)c1cc(F)ccc1-c1cc(C2CN([C@H](C)C3CCN(C(=O)CO)CC3)C2)cn2c(C)nc(F)c12)C(C)C [Example 284-1]
15 nM	CCN(C(=O)c1cc(F)ccc1-c1cc(C2(O)CN([C@H](CCCN3CCN(CCO)CC3)C(C)C)C2)cn2c(C)ncc12)C(C)C [Example 464-1, N-ethyl-5-fluoro-2-(6-{3-hydroxyl-1-[(3R)-6-[4-(2-hydroxylethyl)piperazin-1-yl]-2-methylhexan-3-yl]azacyclobutan-3-yl}-3-methylimidazo[1,5-a]pyridin-8-yl)-N-(isopropyl)benzamide]
2690 nM	CCN(C(=O)c1cc(F)ccc1-c1cc(C2CN([C@@H](CCCN3CCN(C)CC3)C(C)C)C2)cn2c(C)nnc12)C(C)C [Example 360-2, N-ethyl-5-fluoro-2-(3-methyl-6-{1-[(3S)-2-methyl-6-(4-methylpiperazin-1-yl)hexan-3-yl]azacyclobutan-3-yl}-[1,2,4]triazolo[4,3-a]pyridin-8-yl)-N-(isopropyl)benzamide]

Second part, the compound before the results:

SMILES	IC50
Cc1nc(F)c2c(-c3ccc(F)cc3C(=O)N3CCOC[C@H]3C)cc(C3CN(C(CC[C@H]4CN(C)CCO4)C(C)C)C3)cn12 (stereo partly drawn) [Example 308, (3R)-4-{5-fluoro-2-[1-fluoro-3-methyl-6-(1-{4-methyl-1-[(2S)-4-methylmorpholin-2-yl]pentan-3-yl}azacyclobutan-3-yl)imidazo[1,5-a]pyridin-8yl]benzoyl}-3-methylmorpholine]	49 nM
CCN(C(=O)c1cc(F)ccc1-c1cc(C2CN(C(CO)C(C)C)C2)cn2c(C)ncc12)C(C)C (stereo not drawn) [Example 421, N-ethyl-5-fluoro-2-{6-[1-(1-hydroxyl-3-methylbutan-2-yl)azacyclobutan-3-yl]-3-methylimidazo[1,5-a]pyridin-8-yl}-N-(isopropyl)benzamide]	14 nM
CCN(C(=O)c1cc(F)ccc1-c1cc(C2CCN(Cc3ccc(N4CCOC4=O)cc3)C2)cn2cncc12)C(C)C (stereo not drawn) [Example 41]	92 nM
CCN(C(=O)c1cc(F)ccc1-c1cc(C2CN([C@H](CN3CCN(C(C)=O)CC3)C(C)C)C2)cc2c1cnn2C)C(C)C [Example 417]	62 nM
CCN(C(=O)c1cc(F)ccc1-c1cc(C2CCN(C[C@H]3C[C@@H](NS(=O)(=O)CC)C3)C2)cn2c(C)ncc12)C(C)C (stereo partly drawn) [Example 103]	70.5 nM
CC(C)N(CC(F)F)C(=O)c1cc(F)ccc1-c1cc(C2CCN(CCN3CCC(NC(=O)OC(C)(C)C)CC3)C2)cc2c1cnn2C (racemic) [Example 166, N-(1-{2-[3-(4-{2-[(2,2-difluoroethyl)(isopropyl)aminoformyl]-4-fluorophenyl}-1-methyl-1H-indazol-6-yl)pyrrolidin-1-yl]ethyl}piperidin-4-yl)tert-butyl carbamate]	271 nM
CCN(C(=O)c1cc(F)ccc1-c1cc(C2CN([C@H](CCCN3CCN(C4(C(=O)N(C)C)COC4)CC3)C(C)C)C2)cn2c(C)ncc12)C(C)C [Example 476, 3-{4-[(4R)-4-[3-(8-{2-[ethyl(isopropyl)aminoformyl]-4-fluorophenyl}-3-methylimidazo[1,5-a]pyridin-6-yl)azacyclobutan-1-yl]-5-methylhexyl]piperazin-1-yl}-N,N-dimethyloxacyclobutan-3-formamide]	1.9 nM
CCN(C(=O)c1cc(F)ccc1-c1cc(C2CN([C@H](CN3CCN(CCF)CC3)C(C)C)C2)cc2c1cnn2C)C(C)C [Example 424, N-ethyl-5-fluoro-2-(6-{1-[(2S)-1-[4-(2-fluoroethyl)piperazin-1-yl]-3-methylbutan-2-yl]azacyclobutan-3-yl}-1-methyl-1H-indazol-4-yl)-N-(isopropyl)benzamide]	78 nM
CCS(=O)(=O)N1CCC(CN2CC(c3cc(-c4ccc(F)cc4C(=O)N4CCOC[C@H]4C)c4c(F)nc(C)n4c3)C2)CC1 [Example 251]	106 nM
